Test results taken from patent US20130136722A1, “Methods of Ex Vivo Expansion of Blood Progenitor Cells, and Generation of Composite Grafts” (The Board of Trustees of The University of Illinois, priority 2011, published 2013).

Assays:
Assay type in all cases: cell-based, human
[1] = tested on: cobblestone area-forming cells (CAFC); experiment: Cobblestone area-forming cell (CAFC) assay, limiting dilution on M2-10B4 stromal cells; conditions: limiting dilution; mean ± SEM of three independent experiments
Method: (§1) Colony-forming cell (CFC) were assayed by plating 5×10^2 cells per dish in semisolid media and were counted after 14 days as described (Araki et al., 2009, Id.). The number of cobble stone area-forming cell (CAFC) was quantitated in primary and expanded CD34+ cells by plating in limiting dilution onto irradiated M2-10B4 stromal cells as described (Araki et al., 2009, Id.; Conneally et al., 1997, Proc. Natl. Acad. Sci. USA. 94: 9836-9841; Taswell, 1981, J. Immunol. 126: 1614-1619).
(§2) In order to determine the a correlation between expansion of CD34^+CD90^+ cells and their functional potential as pluripotent hematopoietic stem cells, in vitro functional assays were performed, including assessment of colony-forming cells (CFC), a short-term assay, and cobblestone-area forming cells (CAFC), a long-term assay.

[2] = tested on: cord blood-derived CD34+CD90+ cells; experiment: Ex vivo expansion culture of cord blood CD34+ cells with chromatin modifying agents, flow cytometry for CD34/CD90; conditions: for cells co-expressing CD34+ and CD90+ / fold expansion of CD34+CD90+ cells / expansion of CD34+CD90+ cells (in words): 9 days of culture; for cells co-expressing CD34+ and CD90+: cytokines (SCF, Flt3-ligand, TPO, IL-3) plus CMA, FIG. 1A; for fold expansion of CD34+CD90+ cells: cytokines plus CMA; for fold expansion of CD34+CD90+ cells / expansion of CD34+CD90+ cells (in words): FIG. 1B; for CD34+CD90+ (%): mean ± SEM of three independent experiments
Excerpt: Freshly collected human CB was obtained from the New York Blood Center (New York, N.Y.) according to Institutional Review Board guidelines. Low density CB cells (<1.077 g/ml) were obtained by density centrifugation on Ficoll-Paque PLUS (GE Healthcare Bio-Sciences AB, Uppsala, Sweden), from which CD34^+ cells were immunomagnetically isolated by the MACS CD34 progenitor isolation kit (Miltenyi Biotech, Inc., Auburn, Calif.) as described in Araki et al., 2009, Exp Hematol. 37: 1084-1095). The purity of isolated CD34^+ cells routinely ranged from 90-99%.
CD34^+ cell expansion culture with or without CMA was carried out as described (Araki et al., 2009, Id.; Araki et al. 2006, Exp Hematol. 34: 140-149; Araki et al, 2007, Blood 109: 3570-3578.). All other HDAC inhibitors including 1 mM VPA (Sigma), TSA (5 ng/mL), NA (5 mM) or 5 μM of Suberoylanilide hydroxamic acid (SAHA; BioVision, Inc. Mountain View, Calif.) was added twice at 0 hr and after changing media at 48 hrs of culture. HDAC inhibitors were added only once (48 hr) when used in combination with a DNMT inhibitor as described (Araki et al., 2009, Id.; Araki et al., 2006, Id.; Himburg et al., 2010, Nat. Med. 16: 475-482).
Flow cytometric analysis was carried out as described (Araki et al., 2009, Id.; Araki et al. 2006, Id.; Araki et al, 2007, Id.). All antibodies were purchased from BD Bioscience (San Jose, Calif.). All analyses were paired with the corresponding matched isotype control and at least 10,000 live cells were acquired for each analysis (CellQuest software, Becton Dickinson).
In order to compare the effects of various chromatin modifying agents (CMAs) on the degree of expansion of cord blood-derived, primitive subpopulation of CD34^+ cells, valproic acid (VPA), trichostatin A (TSA), nicotinic acid (NA), suberoylanilide hydroxamic acid (SAHA) or 5-aza-2′-deoxycytidine (5azaD) as single agents or in combination was tested in vitro. The results of fluorescence-activated cell sorting experiments performed on cord blood-derived CD34^+/CD90^+ cells treated with CMA agents is shown in FIG. 1A.

[3] = tested on: colony-forming cells (CFC); experiment: Colony-forming cell (CFC) assay of CMA expanded CB cells; conditions: mean ± SEM of three independent experiments
Method: as §1, §2

| Compound | CAFC Frequency/10^4 cells [1] | cells co-expressing CD34+ and CD90+ [2] | fold expansion of CD34+CD90+ cells [2] | CD34+CD90+ (%) [2] | CFC PE (%) (Colony Forming Cell Plating Efficiency) [3] | expansion of CD34+CD90+ cells (in words) [2] |
| --- | --- | --- | --- | --- | --- | --- |
| Nc1ncn([C@H]2C[C@H](O)[C@@H](CO)O2)c(=O)n1 [5azaD, 5-aza-2′-deoxycytidine] | 21.73 ± 14.57 /10^4 cells | 2% | 1.2±0.5 fold | 2.33 ± 0.60% | 8.70 ± 1.37% |  |
| O=C(O)c1cccnc1 [NA, nicotinic acid] |  | 6% | 2.1 fold |  |  | did not promote the expansion |
| O=C(CCCCCCC(=O)Nc1ccccc1)NO [SAHA, suberoylanilide hydroxamic acid] |  | 3% | 1.2 fold |  |  | did not promote the expansion |
| CC(/C=C/C(=O)NO)=C\[C@@H](C)C(=O)c1ccc(N(C)C)cc1 [TSA, trichostatin A] | 6.39 ± 4.81 /10^4 cells | 5% | 7.8±3.5 fold | 5.60 ± 0.29^¤ % | 4.97 ± 0.39% |  |
